# According to patent publication US7560470B2, “Heterocyclyl-3-sulfonylindazoles as 5-hydroxytryptamine-6 ligands” (Wyeth, priority 2003, dated 2009):
# Counter-ions that a name gives are not always drawn. Like-named read-outs stand apart in the source and are kept apart here.
# Assays:
# [1] = molecular target: T1, human cloned 5-HT6 receptors (Homo sapiens, UniProt P50406); experiment: 5-HT6 binding affinity, [3H]-LSD displacement on membranes of Hela cells expressing human cloned 5-HT6 receptors; details: for Ki: [3H]-LSD 3.0 nM, Hela cell membranes, 120 min at room temperature; for inhibition at 1 µM: test compound at 1 μM, displacement of [3H]-LSD
# T1 construct: expressed in transfected cells; host or cells: HeLa cells (membrane preparation)
# T1 sequence (P50406 whole entry): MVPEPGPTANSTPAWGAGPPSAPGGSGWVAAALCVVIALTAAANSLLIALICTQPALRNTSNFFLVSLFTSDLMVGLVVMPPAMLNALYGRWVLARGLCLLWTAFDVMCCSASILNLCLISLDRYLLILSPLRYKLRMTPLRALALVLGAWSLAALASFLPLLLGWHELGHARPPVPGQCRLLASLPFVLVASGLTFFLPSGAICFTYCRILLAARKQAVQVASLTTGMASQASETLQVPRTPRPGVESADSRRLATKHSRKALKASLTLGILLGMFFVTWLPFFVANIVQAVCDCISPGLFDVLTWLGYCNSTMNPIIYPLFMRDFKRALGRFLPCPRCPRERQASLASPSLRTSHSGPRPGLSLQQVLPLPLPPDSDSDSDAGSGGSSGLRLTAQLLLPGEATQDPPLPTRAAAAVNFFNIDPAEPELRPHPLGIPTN
# Protocol: The affinity of test compounds for the serotonin 5-HT6 receptor is evaluated in the following manner. Cultured Hela cells expressing human cloned 5-HT6 receptors are harvested and centrifuged at low speed (1,000×g) for 10.0 min to remove the culture media. The harvested cells are suspended in half volume of fresh physiological phosphate buffered saline solution and recentrifuged at the same speed. This operation is repeated. The collected cells are then homogenized in ten volumes of 50 mM Tris.HCl (pH 7.4) and 0.5 mM EDTA. The homogenate is centrifuged at 40,000×g for 30.0 min and the precipitate is collected. The obtained pellet is resuspended in 10 volumes of Tris.HCl buffer and recentrifuged at the same speed. The final pellet is suspended in a small volume of Tris.HCl buffer and the tissue protein content is determined in aliquots of 10-25 μl volumes. Bovine Serum Albumin is used as the standard in the protein determination according to the method described in Lowry et al., J. Biol. Chem., 193:265 (1951). The volume of the suspended cell membranes is adjusted to give a tissue protein concentration of 1.0 mg/ml of suspension. The prepared membrane suspension (10 times concentrated) is aliquoted in 1.0 ml volumes and stored at −70° C. until used in subsequent binding experiments.
# Binding experiments are performed in a 96 well microtiter plate format, in a total volume of 200 μl. […] The test compounds are added in 20.0 μl volume.
# The reaction is allowed to proceed in the dark for 120 min at room temperature, at which time, the bound ligand-receptor complex is filtered off on a 96 well unifilter with a Packard Filtermate® 196 Harvester. The bound complex caught on the filter disk is allowed to air dry and the radioactivity is measured in a Packard TopCount® equipped with six photomultiplier detectors, after the addition of 40.0 μl Microscint®−20 scintillant to each shallow well. The unifilter plate is heat-sealed and counted in a PackardTopCount® with a tritium efficiency of 31.0%.
# Binding in the presence of varying concentrations of test compound is expressed as a percentage of specific binding in the absence of test compound. The results are plotted as log % bound versus log concentration of test compound. Nonlinear regression analysis of data points with a computer assisted program Prisms® yields both the IC50 and the Ki values of test compounds with 95% confidence limits.
# The amount of displacement by the test compound is given in percent (%) inhibition and is derived from the following equation:
# [formula] where B0 is the amount of CPM bound in the presence of the testing agent. NSB represents the CPM bound in the presence of a saturating concentration of a displacer and TB represents the total amount of CPM bound at zero (0) concentration of test compound.
# Alternatively, a linear regression line of data points is plotted, from which the IC50 value is determined and the Ki value is determined based upon the following equation: Ki=IC50/(1+L/KD) where L is the concentration of the radioactive ligand used and KD is the dissociation constant of the ligand for the receptor, both expressed in nM.
SMILES,Ki ([1]; read-out: 5-HT6 Binding Ki) [nM],also measured
CN1CCN(c2ccc3[nH]nc(S(=O)(=O)c4cccs4)c3c2)CC1 [Example 54],,Ki ([1]; 5-HT6 Binding Ki): 8 nM
CN1CCN(c2ccc3[nH]nc(S(=O)(=O)c4ccc(S(C)(=O)=O)cc4)c3c2)CC1 [Example 80],62,
O=S(=O)(c1ccccc1)c1nn(-c2cccc(C(F)(F)F)c2)c2ccc(N3CCNCC3)cc12 [Example 40],62,melting point: 139 to 142 °C
CN1CCN(c2ccc3[nH]nc(S(=O)(=O)c4ccc(F)cc4F)c3c2)CC1 [Example 68],14,
O=S(=O)(c1ccccc1)c1nn(-c2cccc(C(F)(F)F)c2)c2ccc(N3CCN(Cc4ccccc4)CC3)cc12 [Example 28],136,melting point: 146 to 150 °C
"COc1cc2c(cc1N1CCN(Cc3ccccc3)CC1)c(S(=O)(=O)c1ccccc1)nn2-c1ccccc1 [Example 8, 5-(4-Benzylpiperazin-1-yl)-6-methoxy-1-phenyl-3-(phenylsulfonyl)-1H-indazole hydrochloride]",399,
CC(C)c1ccc(S(=O)(=O)c2n[nH]c3c(N4CCN(C)CC4)cc(Cl)cc23)cc1 [Example 98],22,
"CCn1nc(S(=O)(=O)c2ccccc2)c2cc(N3CCN(Cc4ccccc4)CC3)ccc21 [Example 12, 5-(4-Benzylpiperazin-1-yl)-1-ethyl-3-(phenylsulfonyl)-1H-indazole dihydrochloride]",64,
CN1CCN(c2cc(Cl)cc3c(S(=O)(=O)c4cccc(C(F)(F)F)c4)n[nH]c23)CC1 [Example 99],20,
O=S(=O)(c1cccc2ccccc12)c1n[nH]c2ccc(N3CCNCC3)cc12 [Example 53],1,
O=S(=O)(c1ccccc1)c1nn(-c2ccc(I)cc2)c2ccc(N3CCNCC3)cc12 [Example 42],117,melting point: > 200 °C
"O=S(=O)(c1cccc(F)c1)c1n[nH]c2ccc(N3CCN(Cc4ccccc4)CC3)cc12 [Example 5, 5-(4-Benzylpiperazin-1-yl)-3-[(3-fluorophenyl)sulfonyl]-1H-indazole hydrochloride]",,inhibition at 1 µM [1]: 53%
O=S(=O)(c1ccccc1)c1nn(-c2ccc(C(F)(F)F)cc2)c2ccc(N3CCNCC3)cc12 [Example 33],19,melting point: 170 to 172 °C
CCCCn1nc(S(=O)(=O)c2cccc3ccccc23)c2cc(N3CCN(C)CC3)ccc21 [Example 48],,Ki ([1]; 5-HT6 Binding Ki): 4 nM
O=S(=O)(c1ccccc1)c1nn(-c2ccc(F)c(Cl)c2)c2ccc(N3CCNCC3)cc12 [Example 38],73,melting point: > 200 °C
"CN1CCN(c2cc(Cl)cc3c(S(=O)(=O)c4ccc(F)cc4)n[nH]c23)CC1 [Example 97, 5-Chloro-3[(4-fluorophenyl)sulfonyl]-7-(4-methylpiperazin-1-yl)-1H-indazole]",12,
CCCCc1ccc(S(=O)(=O)c2n[nH]c3ccc(N4CCN(C)CC4)cc23)cc1 [Example 74],26,
COc1ccc(S(=O)(=O)c2n[nH]c3ccc(N4CCN(C)CC4)cc23)cc1 [Example 64],12,
"COc1cc2c(cc1N1CCNCC1)c(S(=O)(=O)c1ccccc1)nn2-c1ccccc1 [Example 9, 6-Methoxy-1-phenyl 3-(phenylsulfonyl)-5-piperazin-1-yl-1H-indazole hydrochloride]",97,
"COc1cc2c(cc1N1CCNCC1)c(S(=O)(=O)c1ccccc1)nn2-c1ccc(C(F)(F)F)cc1 [Example 10, 6-Methoxy-3-(phenylsulfonyl)-5-(piperazin-1-yl)-1-[4-(trifluoromethyl)phenyl]-1H-indazole hydrochloride]",224,
"O=S(=O)(c1ccccc1)c1n[nH]c2ccc(N3CCN(Cc4ccccc4)CC3)cc12 [Example 4, 5-(4-Benzylpiperazin-1-yl)-3-(phenylsulfonyl)-1H-indazole hydrochloride]",86,
"Cn1nc(S(=O)(=O)c2ccccc2)c2cc(N3CCN(Cc4ccccc4)CC3)ccc21 [Example 11, 5-(4-Benzylpiperazin-1-yl)-1-methyl-3-(phenylsulfonyl)-1H-indazole]",,inhibition at 1 µM [1]: 67%
"COc1cc2[nH]nc(S(=O)(=O)c3ccccc3)c2cc1N1CCN(Cc2ccccc2)CC1 [Example 7, 5-(4-Benzylpiperazin-1-yl)-6-methoxy-3-(phenylsulfonyl)-1H-indazole hydrochloride]",113,

# Further lines, with some results ahead:
Ki ([1]; read-out: 5-HT6 Binding Ki) [nM],SMILES,also measured
2,COc1ccc(Cl)cc1S(=O)(=O)c1n[nH]c2ccc(N3CCN(C)CC3)cc12 [Example 77],
5,CN1CCN(c2cc(Cl)cc3c(S(=O)(=O)c4cccc5ccccc45)n[nH]c23)CC1 [Example 100],
6,CN1CCN(c2ccc3[nH]nc(S(=O)(=O)c4ccccc4F)c3c2)CC1 [Example 18],melting point: 160 to 161 °C
2,CCCn1nc(S(=O)(=O)c2cccc3ccccc23)c2cc(N3CCN(C)CC3)ccc21 [Example 45],
1,CN1CCN(c2ccc3[nH]nc(S(=O)(=O)c4cccc5ccccc45)c3c2)CC1 [Example 14],
2,CN1CCN(c2ccc3[nH]nc(S(=O)(=O)c4ccc5ccccc5c4)c3c2)CC1 [Example 72],
4,CC(C)c1ccc(S(=O)(=O)c2n[nH]c3ccc(N4CCN(C)CC4)cc23)cc1 [Example 71],
3,O=S(=O)(c1ccccc1)c1nn(CCc2ccccc2)c2ccc(N3CCNCC3)cc12 [Example 31],melting point: 127 to 130 °C
7,CN1CCN(c2ccc3[nH]nc(S(=O)(=O)c4ccc(Br)cc4)c3c2)CC1 [Example 17],melting point: > 250 °C
4,O=S(=O)(c1ccccc1)c1nn(-c2ccc(F)cc2)c2ccc(N3CCNCC3)cc12 [Example 37],melting point: 159 to 161 °C
5,CN1CCN(c2cccc3c(S(=O)(=O)c4cccc5ccccc45)n[nH]c23)CC1 [Example 101],
2,CN1CCN(c2ccc3c(c2)c(S(=O)(=O)c2cccc4ccccc24)nn3C)CC1 [Example 47],
4,CN1CCN(c2ccc3[nH]nc(S(=O)(=O)c4ccccc4Cl)c3c2)CC1 [Example 65],
1,COc1cccc(S(=O)(=O)c2n[nH]c3ccc(N4CCN(C)CC4)cc23)c1 [Example 63],
2,CN1CCN(c2ccc3[nH]nc(S(=O)(=O)c4ccc(Cl)s4)c3c2)CC1 [Example 15],melting point: > 250 °C
5,CN1CCN(c2ccc3[nH]nc(S(=O)(=O)c4ccc(F)cc4)c3c2)CC1 [Example 60],
3,CCn1nc(S(=O)(=O)c2ccccc2)c2cc(N3CCNCC3)ccc21 [Example 43],melting point: > 200 °C
5,Cc1ccc(S(=O)(=O)c2n[nH]c3ccc(N4CCN(C)CC4)cc23)cc1 [Example 56],
6,CN1CCN(c2ccc3c(c2)c(S(=O)(=O)c2cccc4ccccc24)nn3Cc2cccc(Cl)c2)CC1 [Example 49],
6,CN1CCN(c2ccc3[nH]nc(S(=O)(=O)c4c(Cl)cccc4Cl)c3c2)CC1 [Example 91],
8,CN1CCN(c2ccc3[nH]nc(S(=O)(=O)c4ccc(Cl)cc4)c3c2)CC1 [Example 67],
3,CN1CCN(c2ccc3[nH]nc(S(=O)(=O)c4ccc(Cl)s4)c3c2)CC1 [Example 70],
2,CN1CCN(c2ccc3[nH]nc(S(=O)(=O)c4cccc(F)c4)c3c2)CC1 [Example 19],melting point: > 250 °C
2,CC(C)n1nc(S(=O)(=O)c2cccc3ccccc23)c2cc(N3CCN(C)CC3)ccc21 [Example 50],
1,CC(C)Cn1nc(S(=O)(=O)c2cccc3ccccc23)c2cc(N3CCN(C)CC3)ccc21 [Example 51],
10,CN1CCN(c2ccc3[nH]nc(S(=O)(=O)c4ccccc4Br)c3c2)CC1 [Example 89],
3,CN1CCN(c2ccc3[nH]nc(S(=O)(=O)c4ccccc4F)c3c2)CC1 [Example 58],
2,CN1CCN(c2ccc3c(c2)c(S(=O)(=O)c2cccc4ccccc24)nn3Cc2ccccc2)CC1 [Example 52],
